{"source": "ChEMBL document CHEMBL4011592", "about": "“Synthesis and evaluation of 7-substituted-5,6-dihydrobenzo[c]acridine derivatives as new c-KIT promoter G-quadruplex binding ligands” (Eur J Med Chem, 2017)", "key": {"Homo sapiens [1]": {"species_on_record": "Homo sapiens", "assay": "Binding affinity to c-KIT G-quadruplex DNA in human K562 cells assessed as reduction in c-KIT mRNA level at 0.5 uM after 48 hrs by RT-PCR analysis", "format": "cell-based"}, "[2]": {"assay": "Binding affinity to c-KIT2 G-quadruplex DNA (unknown origin) assessed as ability to promote c-KIT G-rich sequences to form parallel G-quadruplex at 25 uM in absence of KCl measured after 10 mins by CD-spectroscopic analysis"}, "[3]": {"assay": "Binding affinity to 5'-FAM/3'-TAMARA labelled c-KIT1 G-quadruplex DNA (unknown origin) assessed as change in melting temperature at 2 uM by FRET assay"}, "[4]": {"assay": "Binding affinity to F10T duplex DNA (unknown origin) assessed as change in melting temperature at 2 uM by FRET assay"}, "[5]": {"assay": "Binding affinity to 5'-FAM/3'-TAMARA labelled c-KIT1 G-quadruplex DNA (unknown origin) assessed as change in melting temperature at 1 uM by FRET assay"}, "[6]": {"assay": "Binding affinity to 5'-FAM/3'-TAMARA labelled c-KIT2 G-quadruplex DNA (unknown origin) assessed as change in melting temperature at 1 uM by FRET assay"}, "[7]": {"assay": "Binding affinity to F10T duplex DNA (unknown origin) assessed as change in melting temperature at 1 uM by FRET assay"}, "[8]": {"assay": "Binding affinity to 5'-FAM/3'-TAMARA labelled c-KIT1 G-quadruplex DNA (unknown origin) assessed as change in melting temperature at 2 uM in presence ds26 DNA by FRET assay"}, "[9]": {"assay": "Binding affinity to biotinylated c-KIT1 G-quadruplex DNA (unknown origin) by SPR assay"}, "[10]": {"assay": "Binding affinity to biotinylated duplex DNA (unknown origin) by SPR assay"}, "[11]": {"assay": "Selectivity ratio of Kd for biotinylated duplex DNA (unknown origin) to Kd for biotinylated c-KIT1 G-quadruplex DNA (unknown origin)"}, "[12]": {"assay": "Binding affinity to 5'-FAM labelled c-KIT1 G-quadruplex DNA (unknown origin) by microscale thermophoresis"}, "[13]": {"assay": "Binding affinity to 5'-FAM labelled duplex DNA (unknown origin) by microscale thermophoresis"}, "[14]": {"assay": "Binding affinity to c-KIT1 G-quadruplex DNA (unknown origin) assessed as ability to promote c-KIT G-rich sequences to form parallel G-quadruplex at 25 uM in absence of KCl measured after 10 mins by CD-spectroscopic analysis"}, "[15]": {"assay": "Binding affinity to c-KIT1 G-quadruplex DNA (unknown origin) assessed as maintainance of parallel c-KIT G-quadruplex conformation at 5 uM in presence of KCl measured after 10 mins by CD-spectroscopic analysis"}, "[16]": {"assay": "Binding affinity to c-KIT2 G-quadruplex DNA (unknown origin) assessed as maintainance of parallel c-KIT G-quadruplex conformation at 5 uM in presence of KCl measured after 10 mins by CD-spectroscopic analysis"}, "[17]": {"assay": "Binding affinity to c-KIT1 G-quadruplex DNA (unknown origin) assessed as hyperchromicity at 10 uM measured after 10 mins by UV-vis spectroscopic method"}, "[18]": {"assay": "Binding affinity to c-KIT1 G-quadruplex DNA (unknown origin) assessed as red shift at 10 uM measured after 10 mins by UV-vis spectroscopic method"}, "[19]": {"assay": "Binding affinity to c-KIT1 G-quadruplex DNA (unknown origin) assessed as isosbestic point at 10 uM measured after 10 mins by UV-vis spectroscopic method"}, "[20]": {"assay": "Binding affinity to c-KIT1 G-quadruplex DNA (unknown origin) measured after 10 mins by UV-vis spectroscopic method"}, "[21]": {"assay": "Binding affinity to c-KIT1 G-quadruplex DNA (unknown origin) assessed as hyperchromicity at 5 uM measured after 10 mins by fluorescence spectroscopic method"}, "[22]": {"assay": "Binding affinity to c-KIT1 G-quadruplex DNA (unknown origin) assessed as 1:1 binding stoichiometry between compound and G-quadruplex DNA by Job's plot method"}, "[23]": {"assay": "Binding affinity to c-KIT1 G-quadruplex DNA (unknown origin) assessed as 1:1 binding stoichiometry between compound and G-quadruplex DNA 10 uM by ESI-MS spectra analysis"}, "K562 [24]": {"system": "K562", "assay": "Cytotoxicity against human K562 cells after 48 hrs by MTT assay", "format": "functional, cell-based", "settings": "K562, 48 h"}, "A549": {"system": "A549", "assay": "Cytotoxicity against human A549 cells after 48 hrs by MTT assay", "format": "functional, cell-based", "settings": "A549, 48 h"}, "HeLa": {"system": "HeLa", "assay": "Cytotoxicity against human HeLa cells after 48 hrs by MTT assay", "format": "functional, cell-based"}, "BJ": {"system": "BJ", "assay": "Cytotoxicity against human BJ cells after 48 hrs by MTT assay", "format": "cell-based"}, "K562 [25]": {"system": "K562", "assay": "Induction of apoptosis in human K562 cells assessed as late apoptotic cells at 1 uM after 48 hrs by flow cytometric method (reference value: 0.1 %)", "format": "functional"}, "K562 [26]": {"system": "K562", "assay": "Cytotoxicity against human K562 cells expressing c-KIT measured up to 3 days by Annexin V-FITC/propidium iodide staining based assay", "format": "functional, cell-based"}, "K562 [27]": {"system": "K562", "assay": "Induction of apoptosis in human K562 cells assessed as late apoptotic cells at 3 uM after 48 hrs by flow cytometric method (reference value: 0.1 %)", "format": "functional"}, "K562 [28]": {"system": "K562", "assay": "Induction of apoptosis in human K562 cells assessed as late apoptotic cells at 6 uM after 48 hrs by flow cytometric method (reference value: 0.1 %)", "format": "functional"}, "K562 [29]": {"system": "K562", "assay": "Induction of apoptosis in human K562 cells assessed as late apoptotic cells at 9 uM after 48 hrs by flow cytometric method (reference value: 0.1 %)", "format": "functional"}, "K562 [30]": {"system": "K562", "assay": "Induction of apoptosis in human K562 cells assessed as increase in late apoptotic cells after 48 hrs by flow cytometric method", "format": "functional, cell-based"}, "Homo sapiens [31]": {"species_on_record": "Homo sapiens", "assay": "Binding affinity to c-KIT G-quadruplex DNA in human K562 cells assessed as reduction in c-KIT mRNA level after 48 hrs by RT-PCR analysis", "format": "cell-based"}, "Homo sapiens [32]": {"species_on_record": "Homo sapiens", "assay": "Binding affinity to c-KIT G-quadruplex DNA in human K562 cells assessed as reduction in c-KIT mRNA level at 9 uM after 48 hrs by RT-PCR analysis relative to control", "format": "cell-based", "parameters": "scale not given: the % may be the effect or the level left"}, "Homo sapiens [33]": {"species_on_record": "Homo sapiens", "assay": "Binding affinity to c-KIT G-quadruplex DNA in human K562 cells assessed as reduction in c-KIT protein level after 48 hrs by Western blot analysis", "format": "cell-based"}, "K562 [34]": {"system": "K562", "assay": "Effect on total c-KIT protein level in human K562 cells at 9 uM after 48 hrs by Western blot analysis", "format": "ADME, cell-based", "settings": "k562, 48 h"}, "K562 [35]": {"system": "K562", "assay": "Induction of apoptosis in human K562 cells assessed as increase in cleaved PARP level at 1 to 9 uM after 48 hrs by Western blot analysis", "format": "functional, cell-based"}, "K562 [36]": {"system": "K562", "assay": "Induction of apoptosis in human K562 cells assessed as upregulation of cleaved caspase-3 at 1 to 9 uM after 48 hrs by Western blot analysis", "format": "functional, cell-based"}, "K562 [37]": {"system": "K562", "assay": "Induction of apoptosis in human K562 cells assessed as increase in Bax expression after 48 hrs by Western blot analysis", "format": "functional, cell-based"}, "K562 [38]": {"system": "K562", "assay": "Induction of apoptosis in human K562 cells assessed as increase in Bad expression after 48 hrs by Western blot analysis", "format": "functional, cell-based"}, "K562 [39]": {"system": "K562", "assay": "Induction of apoptosis in human K562 cells assessed as decrease in Bcl-2 expression at 1 to 9 uM after 48 hrs by Western blot analysis", "format": "functional, cell-based"}}, "note": "The source made the active and inactive calls. The calls are words filed in the database; no cut-off is given here.", "data": [{"smiles": "Cc1ccc(NC(=O)c2ccc(CN3CCN(C)CC3)cc2)cc1Nc1nccc(-c2cccnc2)n1", "values": [{"measurement": "Activity", "setting": "Homo sapiens [1]", "result": "inactive"}]}, {"smiles": "CCN(CC)CCCNc1c2c(nc3ccccc13)-c1cc(OC)c(OC)cc1CC2", "values": [{"measurement": "Activity", "setting": "[2]", "result": "Active"}, {"measurement": "ΔTm", "setting": "[3]", "result": 15.9, "unit": "°C"}, {"measurement": "ΔTm", "setting": "[4]", "result": 1.2, "unit": "°C"}, {"measurement": "ΔTm", "setting": "[5]", "result": 11.9, "unit": "°C"}, {"measurement": "ΔTm", "setting": "[6]", "result": 5.4, "unit": "°C"}, {"measurement": "ΔTm", "setting": "[7]", "result": 0.6, "unit": "°C"}, {"measurement": "Activity", "setting": "[8]", "result": "Active"}, {"measurement": "Kd", "setting": "[9]", "result": 4.7, "unit": "µM"}, {"measurement": "Kd", "setting": "[10]", "result": "> 20", "unit": "µM"}, {"measurement": "Selectivity ratio", "setting": "[11]", "result": "> 4.3"}, {"measurement": "Kd", "setting": "[12]", "result": 1.5, "unit": "µM"}, {"measurement": "Kd", "setting": "[13]", "result": 10.5, "unit": "µM"}, {"measurement": "Activity", "setting": "[14]", "result": "Active"}, {"measurement": "Activity", "setting": "[15]", "result": "Active"}, {"measurement": "Activity", "setting": "[16]", "result": "Active"}, {"measurement": "Activity", "setting": "[17]", "result": "Active"}, {"measurement": "Activity", "setting": "[18]", "result": "Active"}, {"measurement": "Activity", "setting": "[19]", "result": "Active"}, {"measurement": "Kd", "setting": "[20]", "result": 3.3, "unit": "µM"}, {"measurement": "Activity", "setting": "[21]", "result": "Active"}, {"measurement": "Activity", "setting": "[22]", "result": "Active"}, {"measurement": "Activity", "setting": "[23]", "result": "Active"}, {"measurement": "IC50", "setting": "K562 [24]", "result": 9.2, "unit": "µM"}, {"measurement": "IC50", "setting": "A549", "result": 5.7, "unit": "µM"}, {"measurement": "IC50", "setting": "HeLa", "result": 3.2, "unit": "µM"}, {"measurement": "IC50", "setting": "BJ", "result": 29.4, "unit": "µM"}, {"measurement": "Activity", "setting": "K562 [25]", "result": 1.8, "unit": "%"}, {"measurement": "Activity", "setting": "K562 [26]", "result": "Dose-dependent effect"}, {"measurement": "Activity", "setting": "K562 [27]", "result": 3.6, "unit": "%"}, {"measurement": "Activity", "setting": "K562 [28]", "result": 8.4, "unit": "%"}, {"measurement": "Activity", "setting": "K562 [29]", "result": 64.8, "unit": "%"}, {"measurement": "Activity", "setting": "K562 [30]", "result": "Dose-dependent effect"}, {"measurement": "Activity", "setting": "Homo sapiens [31]", "result": "Dose-dependent effect"}, {"measurement": "Activity", "setting": "Homo sapiens [32]", "result": 52, "unit": "%"}, {"measurement": "Activity", "setting": "Homo sapiens [33]", "result": "Dose-dependent effect"}, {"measurement": "Activity", "setting": "K562 [34]", "result": "Non-Toxic"}, {"measurement": "Activity", "setting": "K562 [35]", "result": "Active"}, {"measurement": "Activity", "setting": "K562 [36]", "result": "Active"}, {"measurement": "Activity", "setting": "K562 [37]", "result": "Dose-dependent effect"}, {"measurement": "Activity", "setting": "K562 [38]", "result": "Dose-dependent effect"}, {"measurement": "Activity", "setting": "K562 [39]", "result": "Active"}]}]}
